IC50 data for eight compounds are collected here from patent publication US5212320A, “Indole derivatives and their use for testosterone 5-alpha-reductase-mediated diseases” (Fujisawa Pharmaceutical Co., Ltd., priority 1990, dated 1993).

Where a name gives a salt, the structure may show the parent alone.

In the assay the target is testosterone 5α-reductase. In words: Inhibitory activity on testosterone 5α-reductase in rats (prostatic testosterone 5α-reductase assay). It counts as biochemical, rat (Spraque-Dawley male. The following applies: rat ventral prostate suspension; 2.2×10^-9 M 1,2,6,7-^3H-testosterone/testosterone; 50 μM NADPH; pH 6.5; 37° C., 30 minutes. The source says:
[2] INHIBITORY ACTIVITY ON TESTOSTERONE 5α-REDUCTASE IN RATS
1,2,6,7-^3 H-Testosterone (85-105 Ci/mmol): 1,2,6,7-^3 H-Testosterone (85-105 Ci/mmol) is a mixture of 1,2,6,7-^3 H-testosterone and testosterone which includes 85-105 Ci of 1,2,6,7-^3H-testosterone per mmol of testosterone and is purchased from New England Nuclear, Boston, Mass., U.S.A.
Aquazol-2 (Aquazol-2 Universal LSC Cocktail): trademark, purchased from New England Nuclear, Boston, Mass., U.S.A.
Mature Spraque-Dawley male rats (7-8 weeks old) were sacrificed by diethyl ether. The ventral prostates were dissected to be free of their capsules and their combined volume was measured by displacement in several milliliters of ice-cold medium A (0.32M sucrose, 0.1 mM dithiothreitol and 20 mM scdium phosphate, pH 6.5). Unless specified, all the following procedures were carried out at 0°-4° C. The prostates were drained, minced, and then homogenized in 3-4 tissue volumes of medium A with Pyrex-glass homogenizer. The homogenate was fractioned by differential centrifugations at 3,000 g for 15 minutes. The resulting pellets were resuspended in medium A. The suspension (20-30 mg protein/ml) was stored at -80° C.
The reaction solution contains 1 mM dithiothreitol, 40 mM sodium phosphate pH 6.5, 50 μM NADPH, 1,2,6,7-^3 H-testosterone/testosterone (2.2×10^-9 M) and the suspension prepared above (0.8 mg of protein) in a total volume of 565 μl. Test Compound was added in 10 μl of 10% ethanol whereas control tubes received the same volume of 10% ethanol. The reaction was started with the addition of the enzyme suspension. After incubation at 37° C. for 30 minutes, the reaction was extracted with 1 ml of ethyl acetate. Fifty μl of ethyl acetate phase was chromatographed on a Merck silica plastic sheet Kieselgel 60 F254, using ethyl acetate: cyclohexane (1:1) as the developing solvent system. The plastic sheet was air dried and cut the testosterone and the 5α-dihydrotestosterone areas. The radioactivity was counted in 5 ml of Aquazol-2 in Packard scintillation counter (PACKARD TRI - CARB 4530), and an inhibitory ratio was calculated.
The IC50 is the concentration at which inhibition is half-maximal. A lower IC50 goes with greater potency. Consider `CC(C)Cc1ccc(C(C)Oc2ccc(C(=O)c3cn(CCCC(=O)O)c4ccccc34)cc2)cc1` (centres unmarked) [(4), 4-[3-[4-[1-(4-Isobutylphenyl)ethoxy]benzoyl]indol-1-yl]butyric acid], for which 3.1 nM corresponded to half-maximal inhibition (IC50). For the compound `Cc1c(C(=O)c2cccc(NC(c3ccc(CC(C)C)cc3)c3ccc(CC(C)C)cc3)c2)c2ccccc2n1CCCC(=O)O` [(2), 4-[3-[3-[Bis(4-isobutylphenyl)methylamino]benzoyl]-2-methylindol-1-yl]butyric acid], the IC50 is 8.6 nM. Take `CC(C)Cc1ccc(C(Nc2cccc(C(=O)c3cn(CCCC(=O)O)c4ccccc34)c2)c2ccc(CC(C)C)cc2)cc1` [(1), 4-[3-[3-[Bis(4-isobutylphen-yl)methylamino]benzoyl]indol-1-yl]butyric acid]: the concentration for half-maximal inhibition (IC50) stood at 5.5 nM. In the case of `CC(C)Cc1ccc(C(Oc2ccc(C(=O)c3cn(CCCC(=O)O)c4ccccc34)cc2)c2ccc(CC(C)C)cc2)cc1` [(3), 4-[3-[4-[Bis(4-isobutylphenyl)methoxy]benzoyl]indol-1-yl]butyric acid], half-maximal inhibition (IC50) was put at 3.5 nM. Consider `O=C(O)CCCn1cc(C(=O)c2cccc(CN3c4ccccc4CCc4ccccc43)c2)c2ccccc21` [(6), 4-[3-[3-(10,11-Dihydro-5H-dibenz[b,f]azepin-5-ylmethyl)benzoyl]indol-1-yl]butyric acid], for which half-maximal inhibition (IC50) required 0.93 nM. Next, `CC(C)Cc1ccc(CNc2cc(NCc3ccc(CC(C)C)cc3)cc(C(=O)c3cn(CCCC(=O)O)c4ccccc34)c2)cc1` [(7), 4-[3-[3,5-Bis[(4-isobutylbenzyl)amino]benzoyl]indol-1-yl]butyric acid dihydrochloride]: 3.7 nM; `CCCCC(Oc1ccc(C(=O)c2cn(CCCC(=O)O)c3ccccc23)cc1)c1ccc(CC(C)C)cc1` (centres unmarked) [(8)]: 0.66 nM; `CC(C)Cc1ccc(C(Cc2cccc(C(=O)c3cn(CCCC(=O)O)c4ccccc34)c2)c2ccc(CC(C)C)cc2)cc1` [(5), 4-[3-[3-[2,2-Bis(4-isobutylphenyl)ethyl]benzoyl]indol-1-yl]butyric acid]: 7.4 nM.
